This note sets out measurements from patent EP4205737A1, “COMPOSITION FOR PREVENTION, AMELIORATION, OR TREATMENT OF INFLAMMATORY DISEASES OR IMMUNE DISEASES COMPRISING GANCAONIN N AS ACTIVE INGREDIENT” (UNIVERSITY-INDUSTRY COOPERATION GROUP OF KYUNG HEE …, priority 2020, dated 2022).

Structures are written as SMILES.

The test system of experiment [1] is nitric oxide (NO). Briefly: Nitric oxide (NO) measurement (Griess reagent) in LPS-stimulated RAW264.7 cells. It is filed as cell-based, murine. The conditions noted are these: pretreated 2 hours before LPS 1 µg/mL, 5 to 40 µM, 24 hours, as treatment concentration increased (FIG. 2A). On the procedure:
Raw264.7 cells and A549 cells were dispensed into 6-well plates (6 × 10^5 cells/well) and cultured under conditions of 37°C and 5% CO2. After the culturing, the cells were treated with 1 µg/mL of lipopolysaccharide (LPS) and with 5 µM to 40 µM of gancaonin N and cultured for 24 hours, and the concentration of NO produced was determined using the cell culture supernatant. The production of NO was measured by reading the absorbance at 540 nm using Griess reagent. Then, a standard curve was drawn using […], and the result value was expressed as […].
To investigate the anti-inflammatory effect of gancaonin N, the inventors pretreated RAW264.7 cells with gancaonin N, 2 hours before stimulation with LPS, and measured the amount of NO production as described in Examples 1 to 5 above to determine change in the amount of NO production according to the concentration of gancaonin N used to treat the cells.
Background: Nitrite, measured by Griess reagent, commonly stands in for NO production.

Experiment [2] deals with iNOS. Briefly: Western blotting of iNOS in LPS-stimulated RAW264.7 cells. The format is cell-based, murine. The note with it: LPS 1 µg/mL, 5 to 40 µM, as treatment concentration increased (FIG. 2C). On the procedure:
(§1) RAW264.7 cells and A549 cells were dispensed into 6-well plates (1 × 10^6 cells/well) and cultured under conditions of 37°C and 5% CO2. After the culturing, the Raw 264.7 cells were treated with 1 µg/mL of lipopolysaccharide (LPS) and the A549 cells were treated with 5 µg/mL of lipopolysaccharide (LPS) and with 5 µM to 40 µM of gancaonin N, and the cells were cultured for 24 hours or 6 hours. Then, the cells were lysed using a lysis buffer. In addition, the left lung extracted from each mouse was lysed using RIPA buffer. SDS-PAGE electrophoresis was performed on the cell and tissue lysates to separate proteins by side, and 5% bovine serum albumin was used for culturing and for blocking antibodies against PGE2 (1:500), IL-1β (1:500), IL-6 (1:500), TNF-α (1:500), i-NOS (1:500), COX-2 (1:1000), P-ERK1/2 (1:1000), ERK1/2 (1:3000), P-p38 (1:1000), p38 (1:3000), NF-κB p65 (1:1000), Lamin B1 (1:1000), and β-actin (1: 5,000).
To investigate the anti-inflammatory effect of gancaonin N, the inventors treated Raw264.7 cells with LPS and Gancaonin N, as described in Examples 1 to 6, and evaluated the expression level of inflammation-inducing factors. Thus, the inhibitory effect of gancaonin N on inflammation-related factors was specifically confirmed.
On the technique in general: A western blot detects proteins with antibodies after separation by electrophoresis.

Experiment [3] has as its system IL-6. Description: Western blotting of IL-6 protein in LPS-stimulated A549 cells. It is filed as cell-based, human. The note with it: LPS 5 µg/mL, 5 to 40 µM (FIG. 4C). On the procedure: as §1
For the pro-inflammatory cytokines whose mRNA expression inhibition was confirmed as above, the expression level of the protein encoded by the mRNA was further checked. To determine the protein expression level, A549 cells were treated with LPS and gancaonin N as described in Examples 1 to 8, and the protein expression levels were checked.

For experiment [4], the system named is p65. Description: MAPK/NF-κB signaling pathway: p65 in LPS-stimulated A549 cells. The format is cell-based, human. On the procedure:
as §1
A549 cells were dispensed into 6-well plates (1 × 10^4 cells/well) and cultured under conditions of 37°C and 5% CO2. After the culturing, the A549 cells were treated with of 5 ug/mL of lipopolysaccharide (LPS) and with 5 µM to 40 µM of gancaonin N, and the cells were then cultured for 6 hours. […] For fluorescence observation, EVOSR Cell Imaging systems (Thermo Fisher Scientific, Waltham, MA, USA) were used. […]

In experiment [5] the test system is IL-1β. Briefly: Western blotting of IL-1β in lung of LPS-induced acute lung injury mouse model. The format is in vivo, BALB/c mice. The conditions noted are these: mice, 10 mg/kg or 30 mg/kg intraperitoneally, LPS-induced ALI, Western blotting (FIG. 8). The procedure: 25 6-week-old female BALB/c mice having a weight of 18g to 20 g were purchased from BioLink (DBL CO., Eumseong, Chungcheongbuk-do, Korea), and reared in the animal laboratory of KyungHee University. To establish an LPS-induced acute lung injury model, all the mice were divided into five groups each group of which consisted of 5 mice, and the five groups were referred to as control, vehicle (only LPS treatment), gancaonin N (10 mg/kg), gancaonin N (30 mg/kg), and dexamethasone (3 mg/kg). Gancaonin N was intraperitoneally injected at a dose of 10 mg/kg or 30 mg/kg, and dexamethasone was intraperitoneally injected at a dose of 3 mg/kg as a positive control group. In addition, the control and vehicle groups were intraperitoneally injected with 4% DMSO in which gancaonin N was dissolved. Then, 10 µg/50 µL of LPS was intratracheally administered to the mice except for the control group one hour later (the control group mice were administered 50 µL of PBS), and the mice were sacrificed 12 hours later.
RAW264.7 cells and A549 cells were dispensed into 6-well plates (1 × 10^6 cells/well) and cultured under conditions of 37°C and 5% CO2. […]
To specifically investigate whether gancaonin N can inhibit pro-inflammatory factors in a mouse model, the protein expression levels of COX-2, IL-1β, and TNF-α were measured by Western blotting as described in Examples 1 to 6 above.

In the case of `COc1ccc(-c2coc3cc(O)c(CC=C(C)C)c(O)c3c2=O)c(O)c1` [gancaonin N, 5,7-dihydroxy-3-(2-hydroxy-4-methoxyphenyl)-6-(3-methylbut-2-enyl)chromen-4-one], the “production of NO” value in experiment [1] was “significantly decreased”. Also, in experiment [2], the “expression level of protein of iNOS” value is recorded as “significantly decreased”. In addition, in experiment [3], the “protein expression of IL-6” value is “significantly inhibited”. In addition, the “activity/protein expression levels of p65” value in experiment [4] (5µM to 40 µM 2 hours before LPS treatment (FIG. 5C)) is listed as “significantly reduced”. The “amount of gancaonin N at which the inhibitory effect on the activity/protein expression levels of p65 was most excellent” value in experiment [4] (LPS, tested 5µM to 40 µM) worked out at 40 µM. Moreover, the “protein expression level of IL-1β in lung” value in experiment [5] is recorded as “significantly reduced”.
